Measured values taken from patent US11104648B2, “Pyrazole derivative” (Zhejiang Research Institute of Chemical Industry Co., Ltd., priority 2018, dated 2021).
Where two headings read alike, the source gives them in different places.

What was measured:
Format in all cases: in vivo
[1] = tested on: Eggs of Tetranychus Cinnabarinus; test: Activity assay of eggs of Tetranychus cinnabarinus (spray method, ovicidal); details: Tetranychus cinnabarinus; for pest or weed control at 2 µg/mL: concentration 2 mg/L
Procedure, shortened: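 Ovicidal spray test: compound dissolved in DMF, diluted with 1‰ Tween 80 (DMF ≤10%), sprayed on eggs laid during 24 h by females on broad bean leaves. Culture at 26±2° C, 70–80% RH, 16 h photoperiod; non-hatched eggs scored as dead when blank control hatched; three repeats.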

[2] = tested on: Tetranychus cinnabarinus Nymphs; test: Activity assay of Tetranychus cinnabarinus nymphs (spray on broad bean leaves)
Procedure, shortened: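 Mortality, judged as no response to gentle touch, was scored 48 h after spraying Tetranychus cinnabarinus nymphs on broad bean leaves (eggs from females removed after 24 h). Test solutions: DMF-dissolved compound, ≤10% DMF, in 1‰ Tween 80; 26±2° C., 70%–80% RH, 16 h light; triplicate, blank control.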

[3] = tested on: adult Tetranychus cinnabarinus; test: Activity assay of adult Tetranychus cinnabarinus (whole-plant spray on bean seedlings); details: 48 h; for pest or weed control at 1.25 µg/mL: concentration 1.25 mg/L
Procedure, shortened: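 Whole plants sprayed after adult mite inoculation and initial census, using compound dissolved in DMF and made up with 1‰ Tween 80 water (DMF not above 10%). Mortality derived from survivor counts at 48 h after treatment. Each treatment run in triplicate.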

[4] = concentration 5 mg/L, spray, non-incubated eggs counted as dead, read-out: ovicidal activity
[5] = 48 h, concentration 2.5 mg/L, read-out: nymph-killing activity
[6] = concentration 2.5 mg/L, read-out: adult mite-killing activity
[7] = spray, read-out: ovicidal activity
[8] = eggs, parallel determination, read-out: Death rate (%)
[9] = 48 h, concentration 2 mg/L, read-out: nymph-killing activity
[10] = 48 h, nymphs, concentration 0.5 mg/L, parallel determination, read-out: Death rate (%)
[11] = adult mites, parallel determination, read-out: Death rate (%)
[12] = read-out: adult mite-killing activity

Compound | pest or weed control at 5 µg/mL [1, 4] | pest or weed control at 2.5 µg/mL [2, 5] | pest or weed control at 2.5 µg/mL [3, 6] | further results
CCCCC(=O)OCO/C(=C(/C#N)c1ccc(C(C)(C)C)cc1)c1c(C)c(C)nn1CC [Compound 381] | ≥ 90% | ≥ 95% | ≥ 90% | –
Cc1cc(/C(OCOC(=O)OCCC(C)C)=C(\C#N)c2ccc(C(C)(C)C)cc2)n(C)n1 [Compound 458] | ≥ 90% | ≥ 95% | ≥ 90% | –
Cc1cc(/C(OC(C)OC(=O)OCC(F)(F)F)=C(\C#N)c2ccc(C(C)(C)C)cc2)n(C)n1 (stereo not drawn) [Compound 499] | ≥ 90% | ≥ 95% | ≥ 90% | –
Cc1nn(C)c(/C(OC(C)OC(=O)CC(C)C)=C(\C#N)c2ccc(C(C)(C)C)cc2)c1C (stereo not drawn) [Compound 182] | ≥ 90% | ≥ 95% | ≥ 90% | –
Cc1nn(C)c(/C(OCOC(=O)C(C)(C)C)=C(\C#N)c2ccc(C(C)(C)C)cc2)c1C [Compound 155] | ≥ 90% | ≥ 95% | ≥ 90% | –
CCCC(=O)OCO/C(=C(/C#N)c1ccc(C(C)(C)C)cc1)c1c(Cl)c(C)nn1CC [Compound 303] | ≥ 90% | ≥ 95% | ≥ 90% | –
CCn1nc(C)cc1/C(OCOC(=O)C1CC1)=C(\C#N)c1ccc(C(C)(C)C)cc1 [Compound 234] | ≥ 90% | ≥ 95% | ≥ 90% | pest or weed control at 2 µg/mL [1, 7]: ≥ 90%; pest or weed control at 2 µg/mL [1, 8]: 100%; pest or weed control at 2 µg/mL [2, 9]: ≥ 90%; pest or weed control at 0.5 µg/mL [2, 10]: 96%; pest or weed control at 1.25 µg/mL [3, 11]: 100%; pest or weed control at 1.25 µg/mL [3, 12]: ≥ 90%
CCn1nc(C)c(Cl)c1/C(OC(C)OC(=O)CF)=C(\C#N)c1ccc(C(C)(C)C)cc1 (stereo not drawn) [Compound 337] | – | – | – | pest or weed control at 5 µg/mL ([1]; read-out: ovicidal activity): ≥ 90%; pest or weed control at 2.5 µg/mL ([2]; 48 h, read-out: nymph-killing activity): ≥ 95%; pest or weed control at 2.5 µg/mL [3, 12]: ≥ 90%
CCC(=O)OCO/C(=C(/C#N)c1ccc(C(C)(C)C)cc1)c1cc(C)nn1CC [Compound 227] | ≥ 90% | ≥ 95% | ≥ 90% | pest or weed control at 2 µg/mL [1, 7]: ≥ 90%; pest or weed control at 2 µg/mL [1, 8]: 97%; pest or weed control at 2 µg/mL [2, 9]: ≥ 90%; pest or weed control at 0.5 µg/mL [2, 10]: 94%; pest or weed control at 1.25 µg/mL [3, 11]: 98%; pest or weed control at 1.25 µg/mL [3, 12]: ≥ 90%
CCn1nc(C)c(C)c1/C(OC(C)OC(=O)CSC)=C(\C#N)c1ccc(C(C)(C)C)cc1 (stereo not drawn) [Compound 410] | ≥ 90% | ≥ 95% | ≥ 90% | –
Cc1nn(C)c(/C(OCOC(=O)C2CC2)=C(\C#N)c2ccc(C(C)(C)C)cc2)c1C [Compound 159] | ≥ 90% | ≥ 95% | ≥ 90% | –
CCn1nc(C)cc1/C(OC(C)OC(=O)C(C)(C)C)=C(\C#N)c1ccc(C(C)(C)C)cc1 (stereo not drawn) [Compound 255] | ≥ 90% | ≥ 95% | ≥ 90% | pest or weed control at 2 µg/mL [1, 7]: ≥ 90%; pest or weed control at 2 µg/mL [1, 8]: 96%; pest or weed control at 2 µg/mL [2, 9]: ≥ 90%; pest or weed control at 0.5 µg/mL [2, 10]: 95%; pest or weed control at 1.25 µg/mL [3, 11]: 95%; pest or weed control at 1.25 µg/mL [3, 12]: ≥ 90%
Cc1cc(/C(OCOC(=O)C(C)(C)C)=C(\C#N)c2ccc(C(C)(C)C)cc2)n(C)n1 [Compound 5] | ≥ 90% | ≥ 95% | ≥ 90% | –
CCn1nc(C)c(Cl)c1/C(OC(C)OC(=O)c1ccccc1)=C(\C#N)c1ccc(C(C)(C)C)cc1 (stereo not drawn) [Compound 339] | ≥ 90% | ≥ 95% | ≥ 90% | –
CCn1nc(C)c(C)c1/C(OCOC(=O)c1ccccc1)=C(\C#N)c1ccc(C(C)(C)C)cc1 [Compound 389] | ≥ 90% | ≥ 95% | ≥ 90% | –
Cc1nn(C)c(/C(OCOC(=O)Cc2ccccc2)=C(\C#N)c2ccc(C(C)(C)C)cc2)c1C [Compound 165] | ≥ 90% | – | ≥ 90% | pest or weed control at 2.5 µg/mL ([2]; concentration 2.5 mg/L, 48 h, read-out: nymph-killing activity): ≥ 95%
CCn1nc(C)cc1/C(OCOC(=O)OCC(F)(F)F)=C(\C#N)c1ccc(C(C)(C)C)cc1 [Compound 563] | ≥ 90% | ≥ 95% | ≥ 90% | –
CCn1nc(C)cc1/C(OCOC(=O)OC)=C(\C#N)c1ccc(C(C)(C)C)cc1 [Compound 547] | – | – | – | pest or weed control at 2 µg/mL [1, 7]: ≥ 90%; pest or weed control at 2 µg/mL [1, 8]: 100%; pest or weed control at 2 µg/mL [2, 9]: ≥ 90%; pest or weed control at 0.5 µg/mL [2, 10]: 93%; pest or weed control at 1.25 µg/mL [3, 11]: 100%; pest or weed control at 1.25 µg/mL [3, 12]: ≥ 90%

Compound | pest or weed control at 5 µg/mL [1, 4] | pest or weed control at 2.5 µg/mL [2, 5] | pest or weed control at 2.5 µg/mL [3, 6] | further results
CCn1nc(C)c(Cl)c1/C(OC(C)OC(=O)CC(C)C)=C(\C#N)c1ccc(C(C)(C)C)cc1 (stereo not drawn) [Compound 332] | ≥ 90% | ≥ 95% | ≥ 90% | –
Cc1cc(/C(OCOC(=O)C2CC2)=C(\C#N)c2ccc(C(C)(C)C)cc2)n(C)n1 [Compound 9] | ≥ 90% | ≥ 95% | ≥ 90% | –
Cc1nn(C)c(/C(OCOC(=O)C(C)C)=C(\C#N)c2ccc(C(C)(C)C)cc2)c1Cl [Compound 79] | ≥ 90% | ≥ 95% | ≥ 90% | –
CC(=O)OCO/C(=C(/C#N)c1ccc(C(C)(C)C)cc1)c1cc(C)nn1C [Compound 1] | ≥ 90% | ≥ 95% | ≥ 90% | –
CCn1nc(C)cc1/C(OCOC(=O)CC(C)C)=C(\C#N)c1ccc(C(C)(C)C)cc1 [Compound 232] | ≥ 90% | ≥ 95% | ≥ 90% | –
CCn1nc(C)cc1/C(OC(C)OC(=O)OCC(F)(F)F)=C(\C#N)c1ccc(C(C)(C)C)cc1 (stereo not drawn) [Compound 595] | ≥ 90% | ≥ 95% | ≥ 90% | –
CCn1nc(C)c(Cl)c1/C(OC(C)OC(C)=O)=C(\C#N)c1ccc(C(C)(C)C)cc1 (stereo not drawn) [Compound 326] | ≥ 90% | ≥ 95% | ≥ 90% | pest or weed control at 2 µg/mL [1, 7]: ≥ 90%; pest or weed control at 2 µg/mL [2, 9]: ≥ 90%; pest or weed control at 1.25 µg/mL [3, 12]: ≥ 90%
CCCCOC(=O)OCO/C(=C(/C#N)c1ccc(C(C)(C)C)cc1)c1cc(C)nn1C [Compound 456] | ≥ 90% | ≥ 95% | ≥ 90% | –
CCOC(=O)OC(C)O/C(=C(/C#N)c1ccc(C(C)(C)C)cc1)c1c(Cl)c(C)nn1CC (stereo not drawn) [Compound 772] | ≥ 90% | ≥ 95% | ≥ 90% | pest or weed control at 2 µg/mL [1, 7]: ≥ 90%; pest or weed control at 2 µg/mL [1, 8]: 100%; pest or weed control at 2 µg/mL [2, 9]: ≥ 90%; pest or weed control at 0.5 µg/mL [2, 10]: 90%; pest or weed control at 1.25 µg/mL [3, 11]: 100%; pest or weed control at 1.25 µg/mL [3, 12]: ≥ 90%
C=CCOC(=O)OC(C)O/C(=C(/C#N)c1ccc(C(C)(C)C)cc1)c1cc(C)nn1C (stereo not drawn) [Compound 506] | ≥ 90% | ≥ 95% | ≥ 90% | –
CSCC(=O)OCO/C(=C(/C#N)c1ccc(C(C)(C)C)cc1)c1cc(C)nn1C [Compound 10] | ≥ 90% | ≥ 95% | ≥ 90% | –
Cc1nn(C)c(/C(OCOC(=O)C2CCCCC2)=C(\C#N)c2ccc(C(C)(C)C)cc2)c1C [Compound 161] | ≥ 90% | ≥ 95% | ≥ 90% | –
CCn1nc(C)c(C)c1/C(OCOC(=O)C(C)(C)C)=C(\C#N)c1ccc(C(C)(C)C)cc1 [Compound 380] | ≥ 90% | ≥ 95% | ≥ 90% | –
CCSC(=O)OCO/C(=C(/C#N)c1ccc(C(C)(C)C)cc1)c1cc(C)nn1CC [Compound 576] | ≥ 90% | ≥ 95% | ≥ 90% | –
CCCCC(=O)OCO/C(=C(/C#N)c1ccc(C(C)(C)C)cc1)c1cc(C)nn1C [Compound 6] | ≥ 90% | ≥ 95% | ≥ 90% | –
CCn1nc(C)cc1/C(OCOC(=O)OCC(C)C)=C(\C#N)c1ccc(C(C)(C)C)cc1 [Compound 553] | ≥ 90% | ≥ 95% | ≥ 90% | pest or weed control at 2 µg/mL [1, 7]: ≥ 90%; pest or weed control at 2 µg/mL [2, 9]: ≥ 90%; pest or weed control at 1.25 µg/mL [3, 12]: ≥ 90%
CCn1nc(C)cc1/C(OCOC(=O)C(C)C)=C(\C#N)c1ccc(C(C)(C)C)cc1 [Compound 229] | ≥ 90% | ≥ 95% | ≥ 90% | –
C=CC(=O)OC(C)O/C(=C(/C#N)c1ccc(C(C)(C)C)cc1)c1c(C)c(C)nn1CC (stereo not drawn) [Compound 417] | ≥ 90% | ≥ 95% | ≥ 90% | –
